# In patent publication US4495101A, “Antiinflammatory 5H-tetrazolo (5,1-c)(1,4)benzodiazepine derivatives” (American Home Products Corporation, priority 1983, dated 1985):
# System: carrageenan-induced paw edema
# Experiment: rat carrageenan edema test (paw volume, mercury plethysmography)
# Type: in vivo, male Sprague-Dawley or Charles River rats
# Details: 150 mg/kg oral, one hour prior to 1% carrageenan, read three hours after carrageenan, vs control, *p ≤ 0.05, **p ≤ 0.01
# Protocol: The anti-inflammatory activity of the claimed compounds was established by direct measurement of the effect of structurally representative compounds in the rat carrageenan edema test. This standard pharmacological procedure for determining antiinflammatory effects of a compound is performed by subcutaneous injection in the right paw of 6 animals (140-180 grams, male Sprague-Dawley or Charles River rats) with 0.1 milliliter of 1 percent carrageenan at zero time. The compounds representative of this invention are administered orally one hour prior to carrageenan at 150 milligrams per kilogram. The paw volume (edema in milliliters) is determined at zero time and three hours after carrageenan administration by mercury plethysmographic readings (milliliter) of the paw. From the change in paw volume compared to control, the percent inhibition of edema is determined. The results obtained with the compounds of Examples 1, 9, 17 and 18, which are representative of the other compounds of the invention, are as follows: […]
row,Compound,% Inhibition of Edema
1,"S=C1Nc2ccc(Cl)cc2Cn2nnnc21 [Example 9, 5,10-Dihydro-7-Chloro-11H-tetrazolo[5,1-c][1,4]-benzodiazepine-11-thione]",42%
2,"O=C1Nc2ccc(Cl)cc2Cn2nnnc21 [Example 1, 7-Chloro-5,10-dihydro-11H-tetrazolo[5,1-c][1,4]-benzodiazepine-11-one]",39%
3,"CN1CCN(C2=Nc3cc(Cl)ccc3Cn3nnnc32)CC1 [Example 17, 8-Chloro-11-(4-methyl-1-piperazinyl)-5H-tetrazolo[5,1-c][1,4]benzodiazepine]",42%
4,"Cc1ccc2c(c1)Cn1nnnc1C(N1CCN(C)CC1)=N2 [Example 18, 7-Methyl-11-(4-methyl-1-piperazinyl)-5H-tetrazolo[5,1-c][1,4]benzodiazepine]",33%
